The results in this text go back to patent publication US4260601A, “Chemical compounds” (Nyegaard & Co. A/S, priority 1979, dated 1981).

A short description of the experiment: anorexigenic / biological activity of the peptide (no method described).

Square brackets hold non-standard residues; d marks the D form. Peptide text beside a SMILES is read from it. pGlu = O=C1CC[C@@H](C(=O)O)N1

Regarding `O=C(O)CNC(=O)[C@H](Cc1c[nH]cn1)NC(=O)[C@@H]1CCC(=O)N1` [synthetic peptide, L-(pyro)glutamyl-L-histidyl-glycine] ([pGlu]-His-Gly-OH), under “comparison with biogenic material isolated from urine”, the “biological activity of the synthetic peptide versus the biogenic material isolated from urine” value was “comparable biological activity”. Also, under “statement in words, peptide found in the urine of patients suffering from severe anorexia”, the anorexigenic properties result is “possesses interesting anorexigenic properties”.
